Reference: US20240190868A1, “SOS1 INHIBITORS” (Acerand Therapeutics (USA) Limited, priority 2022, published 2024)

Test system: cellular pERK in NCI-H1975 cells (EGFR/L858R-T790M)
Assay: pERK potency assay (In Cell ELISA)
Type: cell-based
Conditions: Homo sapiens, 1 h compound incubation
Excerpt: The assay measures the ability of a compound to inhibit SOS1 function in cells. SOS1 activates RAS proteins by catalyzing the conversion of RAS GDP to RAS GTP in response to receptor tyrosine kinase activation. Activation of RAS induces a sequence of cellular signaling events that result in increased phosphorylation of ERK at Threonine 202 and Tyrosine 204 (pERK). The procedure (i.e., In Cell ELISA as described below) measures the level of cellular pERK in response to a test compound in NCI-H1975 cells (EGFR/L858R-T790M).
First, NCI-H1975 cells were grown and maintained using media and procedures recommended by the ATCC. A day before compound addition, cells were plated in poly-D-lysine coated 96-well cell culture plates (Corning® BioCoat® Cat #356640) at 25000 cells/well/100 μL and grown overnight in an incubator at 37° C. with 5% CO2. A solution of a test compound was prepared with 3-fold serial dilutions in DMSO having a top concentration of 6 mM. On the day of the assay, 50 μL of a test compound dilution in media was added to each well of cell culture plate with a final compound concentration in the range of 0.001 μM to 20 μM. After addition of the compound, cells were incubated for 1 h at 37° C. with 5% CO2, after which the culture medium was removed. Cells were fixed with 4% formaldehyde in phosphate-buffered saline (PBS) and incubated at RT for 20 min. The plate was washed three times with PBST (PBS with 0.05% Tween®-20), followed by incubation with 100 μL of pre-cooled methanol at −20° C. for 20 min. After incubation, methanol was removed. The plate was again washed with PBST. Cells were then permeabilized with 100 μL/well of 0.1% Triton X-100 in PBS at RT for 20 min and then quenched with a quenching buffer (PBST containing 1% H2O2 and 0.1% sodium azide) for 20 min at RT with gentle shaking. After washing once with PBST, a blocking buffer (250 uL/well, Pierce™ Protein-Free-PBS Blocking Buffer, Cat #37572) was then added to the cells for 1-h incubation at RT, followed by an anti-pERK antibody (cell signaling, 1:1000 dilution in 5% BSA in PBST) incubation overnight at 4° C. and a secondary antibody-HRP (Jackson immunoresearch, 1:3000 dilution in 5% BSA in PBST) incubation at RT for 1 h. PBST wash was carried out after each step three times. Before the addition of a substrate (Advansta ELISABright™), the plate was washed with PBS twice to remove detergent residues. The Cellular pERK level was determined using the microplate reader (Biotek Synergy™ H1) to detect the chemiluminescence signal. IC50 was determined by fitting a 4-parameter sigmoidal concentration-response model.

Cc1c([C@@H](C)/N=c2\nc(C)n(C)c3cnc(C4(C(F)F)CC4)cc23)cccc1C(F)(F)F [Compound 18, (R,Z)-6-(1-(difluoromethyl)cyclopropyl)-1,2-dimethyl-N-(1-(2-methyl-3-(trifluoromethyl)phenyl)ethyl)pyrido[3,4-d]pyrimidin-4(1H)-imine]
IC50: < 100 nM

CC(=O)N1CC=C(c2cc3/c(=N/[C@H](C)c4cccc(C(F)(F)F)c4C)nc(C)n(C(C)C)c3cn2)CC1 [Compound 9]
IC50: < 100 nM

CC(=O)N1CC=C(c2cc3/c(=N/[C@H](C)c4cccc(C(F)(F)F)c4C)ncn(C)c3cn2)CC1 [Compound 16]
IC50: < 100 nM

CC(=O)N1CC=C(c2cc3/c(=N/[C@H](C)c4cccc(C(F)(F)F)c4C)nc(C)n(C)c3cn2)CC1 [Compound 2, (R,Z)-1-(4-(1,2-dimethyl-4-((1-(2-methyl-3-(trifluoromethyl)phenyl)ethyl)imino)-1,4-dihydropyrido[3,4-d]pyrimidin-6-yl)-3,6-dihydropyridin-1(2H)-yl)ethan-1-one]
IC50: < 100 nM

Cc1n/c(=N\[C@H](C)c2cccc(C(F)F)c2F)c2cc(C3(C(F)F)CC3)ncc2n1C [Compound 94, (R,Z)—N-(1-(3-(difluoromethyl)-2-fluorophenyl)ethyl)-6-(1-(difluoromethyl)cyclopropyl)-1,2-dimethylpyrido[3,4-d]pyrimidin-4(1H)-imine]
IC50: < 100 nM

C#C[C@@H](/N=c1\ncn(C)c2cc(=O)n(C3(C(F)F)CC3)cc12)c1cccc(C(F)(F)F)c1C [Compound 21, (R,Z)-6-(1-(difluoromethyl)cyclopropyl)-1-methyl-4-((1-(2-methyl-3-(trifluoromethyl)phenyl)prop-2-yn-1-yl)imino)-4,6-dihydropyrido[4,3-d]pyrimidin-7(1H)-one]
IC50: < 100 nM

CC(=O)N1CCN(c2cc3/c(=N/[C@H](C)c4cccc(C(F)(F)F)c4C)nc(C)n(C)c3cn2)CC1 [Compound 49]
IC50: < 100 nM

Cc1c([C@@H](C)/N=c2\nc(C)n(C)c3cnc(-c4ccn5c(C(F)(F)F)ncc5c4)cc23)cccc1C(F)(F)F [Compound 47, (R,Z)-1,2-dimethyl-N-(1-(2-methyl-3-(trifluoromethyl)phenyl)ethyl)-6-(3-(trifluoromethyl)imidazo[1,5-a]pyridin-7-yl)pyrido[3,4-d]pyrimidin-4(1H)-imine]
IC50: < 100 nM

Cc1c([C@@H](C)/N=c2\nc(C)n(C)c3cnc(C4=CCOCC4)cc23)cccc1C(F)(F)F [Compound 39]
IC50: < 100 nM

CC(=O)N1CCN(c2cnc3c(c2)/c(=N/[C@H](C)c2cccc(C(F)(F)F)c2C)nc(C)n3C)CC1 [Compound 53]
IC50: < 100 nM

CC(=O)N1CCC(F)(c2cc3/c(=N/[C@H](C)c4cccc(C(F)(F)F)c4C)nc4n(c3cn2)CCO4)CC1 [Compound 33, (R,Z)-1-(4-fluoro-4-(5-((1-(2-methyl-3-(trifluoromethyl)phenyl)ethyl)imino)-8,9-dihydro-5H-oxazolo[3,2-a]pyrido[4,3-e]pyrimidin-3-yl)piperidin-1-yl)ethan-1-one]
IC50: < 100 nM

CC(=O)N1CCC(O)(c2cc3/c(=N/[C@H](C)c4cccc(C(F)(F)F)c4C)ncn(C)c3c(=O)n2C)CC1 [Compound 81, (R,Z)-6-(1-acetyl-4-hydroxypiperidin-4-yl)-1,7-dimethyl-4-((1-(2-methyl-3-(trifluoromethyl)phenyl)ethyl)imino)-1,7-dihydropyrido[3,4-d]pyrimidin-8(4H)-one]
IC50: < 100 nM

Cc1c([C@@H](C)/N=c2\nc3n(c4cnc(C5(C(F)F)CC5)cc24)CCC3)cccc1C(F)(F)F [Compound 31, (R,Z)-3-(1-(difluoromethyl)cyclopropyl)-N-(1-(2-methyl-3-(trifluoromethyl)phenyl)ethyl)-8,9-dihydropyrido[4,3-e]pyrrolo[1,2-a]pyrimidin-5(7H)-imine]
IC50: < 100 nM

Cc1c(C#N)cccc1[C@@H](C)/N=c1\nc(C)n(C)c2ccc(C3=CCOCC3)cc12 [Compound 38]
IC50: < 100 nM

Cc1c([C@@H](C)/N=c2\nc(C)n(C)c3ccc(C4=CCOCC4)cc23)cccc1C(F)(F)F [Compound 36]
IC50: < 100 nM

COc1nc(C2(O)CC(C)(C)N(C(C)=O)C(C)(C)C2)cc2/c(=N/[C@H](C)c3cccc(C(F)(F)F)c3C)ncn(C)c12 [Compound 24, (R,Z)-1-(4-hydroxy-4-(8-methoxy-1-methyl-4-((1-(2-methyl-3-(trifluoromethyl)phenyl)ethyl)imino)-1,4-dihydropyrido[3,4-d]pyrimidin-6-yl)-2,2,6,6-tetramethylpiperidin-1-yl)ethan-1-one]
IC50: < 100 nM

CC(=O)N1CC=C(c2cnc3c(c2)/c(=N/[C@H](C)c2cccc(C(F)(F)F)c2C)nc(C)n3C)CC1 [Compound 12]
IC50: < 100 nM

CC(=O)N1CCC(F)(c2cc3/c(=N/[C@H](C)c4cccc(C(F)(F)F)c4C)nc(C)n(C)c3cn2)CC1(C)C (stereo partly drawn) [Compound 46, 1-(4-((Z)-1,2-dimethyl-4-(((R)-1-(2-methyl-3-(trifluoromethyl)phenyl)ethyl)-imino)-1,4-dihydropyrido[3,4-d]pyrimidin-6-yl)-4-fluoro-2,2-dimethylpiperidin-1-yl)ethan-1-one]
IC50: < 100 nM

CC(=O)N1CCC(F)(c2cc3/c(=N/[C@H](C)c4cccc(C#N)c4C)nc4n(c3cn2)CCO4)CC1 [Compound 35]
IC50: < 100 nM

Cc1c([C@@H](C)/N=c2\nc(C)n(C)c3cnc(N4CCC5(CC5)C4)cc23)cccc1C(F)(F)F [Compound 50]
IC50: < 100 nM

Cc1c([C@@H](C)/N=c2\nc(C)n(C)c3cnc(N4CCC(F)(F)CC4)cc23)cccc1C(F)(F)F [Compound 48, (R,Z)-6-(4,4-difluoropiperidin-1-yl)-1,2-dimethyl-N-(1-(2-methyl-3-(trifluoromethyl)phenyl)ethyl)pyrido[3,4-d]pyrimidin-4(1H)-imine]
IC50: < 100 nM

Cc1c(C#N)cccc1[C@@H](C)/N=c1\nc(C)n(C)c2cnc(C3=CCOCC3)cc12 [Compound 41]
IC50: < 100 nM

Cc1c([C@@H](C)/N=c2\nc(C)n(C)c3cnc(N4CCO[C@H](C)C4)cc23)cccc1C(F)(F)F [Compound 52]
IC50: < 100 nM

CC(=O)N1CC=C(c2cc3/c(=N/[C@H](C)c4cccc(C(F)(F)F)c4C)ncn(C4CC4)c3cn2)CC1 [Compound 14]
IC50: < 100 nM

CC(=O)N1CCN(C(=O)c2cc3/c(=N/[C@H](C)c4cccc(C(F)F)c4F)nc(C)n(C)c3cn2)CC1 [Compound 89, (R,Z)-1-(4-(4-((1-(3-(difluoromethyl)-2-fluorophenyl)ethyl)imino)-1,2-dimethyl-1,4-dihydropyrido[3,4-d]pyrimidine-6-carbonyl)piperazin-1-yl)ethan-1-one]
IC50: < 100 nM

Cc1c(C#N)cccc1[C@@H](C)/N=c1\nc(C)n(C)c2cnc(N3CCO[C@H](C)C3)cc12 [Compound 61]
IC50: < 100 nM

C[C@@H](/N=c1\ncn(C)c2cnc(C3(C(F)F)CC3)cc12)c1cccc(C(F)F)c1F [Compound 20, (R,Z)—N-(1-(3-(difluoromethyl)-2-fluorophenyl)ethyl)-6-(1-(difluoromethyl)-cyclopropyl)-1-methylpyrido[3,4-d]pyrimidin-4(1H)-imine]
IC50: < 100 nM

CC(=O)N1CCC(F)(c2ccc3c(c2)/c(=N/[C@H](C)c2cccc(C(F)(F)F)c2C)ncn3C)CC1 [Compound 17]
IC50: < 100 nM

CC(=O)N1CCC(F)(c2cc3/c(=N/[C@H](C)c4cccc(C#N)c4C)nc(C)n(C)c3cn2)CC1 [Compound 8]
IC50: < 100 nM

Cc1c([C@@H](C)/N=c2\nc(C)n(C)c3cnc(C4=CCN(C(N)=O)CC4)cc23)cccc1C(F)(F)F [Compound 43, (R,Z)-4-(1,2-dimethyl-4-((1-(2-methyl-3-(trifluoromethyl)phenyl)ethyl)imino)-1,4-dihydropyrido[3,4-d]pyrimidin-6-yl)-3,6-dihydropyridine-1(2H)-carboxamide]
IC50: < 100 nM

Cc1c([C@@H](C)/N=c2\nc(C)n(C3CC3)c3cnc(N4CCOCC4)cc23)cccc1C(F)(F)F [Compound 79]
IC50: < 100 nM

CC(=O)N1CC=C(c2cc3/c(=N/[C@H](C)c4cccc(C(F)(F)F)c4C)nc(C)n(C4CC4)c3cn2)CC1 [Compound 10]
IC50: < 100 nM

CC(=O)N1CCC(F)(c2cc3/c(=N/[C@H](C)c4cccc(C(F)F)c4F)nc(C)n(C)c3cn2)CC1 [Compound 6, (R,Z)-1-(4-(4-((1-(3-(difluoromethyl)-2-fluorophenyl)ethyl)imino)-1,2-dimethyl-1,4-dihydropyrido[3,4-d]pyrimidin-6-yl)-4-fluoropiperidin-1-yl)ethan-1-one]
IC50: < 100 nM
